Assay results from patent US6362369B1, “Phthalic acid diamide derivatives fluorine-containing aniline compounds as starting material, agricultural and horticultural insecticides, and a method for application of the insecticides” (Nihon Nohyaku Co., Ltd., priority 1997, dated 2002).

Experiments:
[1] = test system: common cutworm (Spodoptera Litura); test: Insecticidal effect on common cutworm (Test Example 2); assay type: in vivo; settings: 500 ppm, eight days after inoculation, 25° C.; for Insecticidal effect on common cutworm (Test Example 2), judged grade: cabbage leaf dip, second-instar larvae; for Insecticidal effect, Test Example 2: common cutworm second-instar larvae, cabbage leaf immersed
Experimental: Insecticidal effect on common cutworm (Spodoptera Litura)
After air-drying, it was placed in a plastic Petri dish with a diameter of 9 cm and inoculated with second-instar larvae of common cutworm, after which the dish was closed and then allowed to stand in a room thermostated at 25° C. Eight days after the inoculation, the dead and alive were counted. The mortality was calculated according to the following equation and the insecticidal effect was judged according to the criterion shown in Test Example 1. The test was carried out with triplicate groups of 10 insects. [formula]

[2] = test system: diamondback moth (Plutella xylostella); test: Insecticidal effect on diamondback moth (Test Example 1); assay type: in vivo; settings: for Insecticidal effect on diamondback moth (Test Example 1), judged grade: mortality judged according to the criterion shown in Test Example 1; for Insecticidal effect, Test Example 1: diamondback moth, mortality judged by criterion of Test Example 1
Method in brief: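 Triplicate groups of 10 insects: eggs laid on Chinese cabbage seedling by adults, seedling immersed then air-dried, kept at 25° C. Day-6 hatch counts gave mortality, rated by criterion.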

Row | SMILES | Insecticidal effect on common cutworm (Test Example 2), judged grade [1] | Insecticidal effect on diamondback moth (Test Example 1), judged grade [2] | Insecticidal effect, Test Example 2 [1] | Insecticidal effect, Test Example 1 [2]
1 | Cc1cc(Oc2ccc(C(F)(F)F)cn2)ccc1NC(=O)c1c(I)cccc1C(=O)NC(C)C [compound 460] | B (99-90) | A (100) |  | 
2 | CC(C)NC(=O)c1cccc(F)c1C(=O)Nc1ccc(C(F)(F)C(F)(F)C(F)(F)F)cc1 [compound 535] | A (100) | A (100) |  | 
3 | Cc1cc(OC(F)(F)C(F)OC(F)(F)F)ccc1NC(=O)c1c(F)cccc1C(=O)NC(C)C (centres unmarked) [compound 570] | A (100) | A (100) |  | 
4 | Cc1cc(OC(F)F)c(Cl)cc1NC(=O)c1c(F)cccc1C(=O)NC(C)C [compound 571] | C (89-80) | A (100) |  | 
5 | CC(C)NC(=O)c1c(C(=O)Nc2cccc(Cl)c2Cl)cccc1[N+](=O)[O-] [compound 584] | D (79-50) | A (100) |  | 
6 | CC(C)NC(=O)c1c(C(=O)Nc2ccc(Br)cc2)cccc1[N+](=O)[O-] [compound 591] | D (79-50) | A (100) |  | 
7 | CC(C)NC(=O)c1c(C(=O)Nc2ccc(Cl)cc2Cl)cccc1[N+](=O)[O-] [compound 633] | D (79-50) | A (100) |  | 
8 | CC(C)NC(=O)c1c(C(=O)Nc2c(Cl)cccc2Cl)cccc1[N+](=O)[O-] [compound 635] | D (79-50) | A (100) |  | 
9 | CC(C)NC(=O)c1c(C(=O)Nc2c(F)cccc2F)cccc1[N+](=O)[O-] [compound 641] | D (79-50) | D (79-50) |  | 
10 | CC(C)NC(=O)c1c(C(=O)Nc2ccc(Cl)c(Cl)c2Cl)cccc1[N+](=O)[O-] [compound 644] | A (100) | A (100) |  | 
11 | CC(C)NC(=O)c1c(C(=O)Nc2c(F)c(F)c(F)c(F)c2F)cccc1[N+](=O)[O-] [compound 646] | D (79-50) | A (100) |  | 
12 | Cc1cc(Cl)ccc1NC(=O)c1cccc([N+](=O)[O-])c1C(=O)NC(C)C [compound 664, 3-nitro-N^1-(4-chloro-2-methylphenyl)-N^2-isopropyl-phthalic acid diamide] | A (100) | A (100) |  | 
13 | CC(C)NC(=O)c1c(C(=O)Nc2ccc(OC(F)F)cc2C(F)(F)F)cccc1[N+](=O)[O-] [compound 692] | D (79-50) | A (100) |  | 
14 | CC(C)NC(=O)c1c(C(=O)Nc2ccc(OC(F)F)c(C(F)(F)F)c2)cccc1[N+](=O)[O-] [compound 693] | A (100) | A (100) |  | 
15 | Cc1cc([N+](=O)[O-])ccc1NC(=O)c1cccc([N+](=O)[O-])c1C(=O)NC(C)C [compound 706] | A (100) | A (100) |  | 
16 | Cc1c(NC(=O)c2cccc([N+](=O)[O-])c2C(=O)NC(C)C)ccc([N+](=O)[O-])c1C [compound 709] | A (100) | A (100) |  | 
17 | CSc1ccc(NC(=O)c2cccc([N+](=O)[O-])c2C(=O)NC(C)C)c(C)c1 [compound 719] | D (79-50) | A (100) |  | 

Row | SMILES | Insecticidal effect on common cutworm (Test Example 2), judged grade [1] | Insecticidal effect on diamondback moth (Test Example 1), judged grade [2] | Insecticidal effect, Test Example 2 [1] | Insecticidal effect, Test Example 1 [2]
18 | Cc1cc(Oc2c(F)c(F)c(F)c(F)c2F)ccc1NC(=O)c1cccc([N+](=O)[O-])c1C(=O)NC(C)C [compound 725] | A (100) | A (100) |  | 
19 | Cc1ccc(Cl)cc1NC(=O)c1cccc([N+](=O)[O-])c1C(=O)NCC(C)C [compound 831] | D (79-50) | D (79-50) |  | 
20 | Cc1ccc(Cl)cc1NC(=O)c1ccccc1C(=O)NC(C)(C)C [compound 841] | D (79-50) | A (100) |  | 
21 | Cc1ccc(Cl)cc1NC(=O)c1cccc([N+](=O)[O-])c1C(=O)NC1CCCC1 [compound 858] | A (100) | C (89-80) |  | 
22 | C#CCNC(=O)c1c(C(=O)Nc2cc(Cl)ccc2C)cccc1[N+](=O)[O-] [compound 869] | D (79-50) | A (100) |  | 
23 | O=C(Nc1ccc(C(F)(F)F)cc1)c1ccccc1C(=O)N1CCCC1 [compound 881] | D (79-50) | A (100) |  | 
24 | Cc1cc(Cl)ccc1NC(=O)c1c(Cl)cccc1C(=O)NC(C)(C)C [compound 938] | A (100) | A (100) |  | 
25 | CC(C)NC(=O)c1c(I)cccc1C(=O)Nc1ccc(I)cc1C(C)C [compound 965] |  |  | C (89-80) | A (100)
26 | CC(C)(C)NC(=O)c1ccccc1C(=O)Nc1ccc(C(O)(C(F)(F)F)C(F)(F)F)cc1 [compound 1052] |  |  | A (100) | A (100)
27 | CC(C)(C)NC(=O)c1c(I)cccc1C(=O)Nc1ccc2c(c1)OC(F)(F)C(F)O2 (centres unmarked) [compound 1166] |  |  | A (100) | A (100)
28 | CCN(CC)C(=O)c1c(I)cccc1C(=O)N(CC)c1ccc(C(F)(F)C(F)(F)F)cc1C [compound 1179] |  |  | A (100) | A (100)
29 | Cc1cc(OC(F)(F)F)ccc1NC(=O)c1cccc(C(F)(F)F)c1C(=O)NC(C)C [compound 1183] |  |  | A (100) | A (100)
30 | Cc1cc(C(F)(F)C(F)(F)F)ccc1NC(=O)c1cccc(C(F)(F)F)c1C(=O)NC(C)C [compound 1184] |  |  | A (100) | A (100)
31 | CCN(CC)C(=O)c1c(C(=O)Nc2ccc(OC(F)(F)F)cc2C)cccc1C(F)(F)F [compound 1185] |  |  | C (89-80) | A (100)
32 | CCN(CC)C(=O)c1c(C(=O)Nc2ccc(C(F)(F)C(F)(F)F)cc2C)cccc1C(F)(F)F [compound 1186] |  |  | A (100) | A (100)
33 | CC(C)NC(=O)c1c(Cl)cccc1C(=O)Nc1ccc(OC(F)(F)F)cc1F [compound 1187] |  |  | A (100) | A (100)
34 | CC(C)NC(=O)c1c(I)cccc1C(=O)Nc1ccc(OC(F)(F)F)cc1F [compound 1188] |  |  | A (100) | A (100)
